Experiments:
Ima5 = biological target: T1, Ima5 (Saccharomyces cerevisiae, UniProt P40884); test: glucose release, crude extract of IMA5-overexpressing yeast; format: biochemical; conditions: relative to ima5 deletion mutant
T1 construct: crude extract of yeast overexpressing IMA5, compared with ima5 deletion mutant
T1 sequence (P40884 1-581): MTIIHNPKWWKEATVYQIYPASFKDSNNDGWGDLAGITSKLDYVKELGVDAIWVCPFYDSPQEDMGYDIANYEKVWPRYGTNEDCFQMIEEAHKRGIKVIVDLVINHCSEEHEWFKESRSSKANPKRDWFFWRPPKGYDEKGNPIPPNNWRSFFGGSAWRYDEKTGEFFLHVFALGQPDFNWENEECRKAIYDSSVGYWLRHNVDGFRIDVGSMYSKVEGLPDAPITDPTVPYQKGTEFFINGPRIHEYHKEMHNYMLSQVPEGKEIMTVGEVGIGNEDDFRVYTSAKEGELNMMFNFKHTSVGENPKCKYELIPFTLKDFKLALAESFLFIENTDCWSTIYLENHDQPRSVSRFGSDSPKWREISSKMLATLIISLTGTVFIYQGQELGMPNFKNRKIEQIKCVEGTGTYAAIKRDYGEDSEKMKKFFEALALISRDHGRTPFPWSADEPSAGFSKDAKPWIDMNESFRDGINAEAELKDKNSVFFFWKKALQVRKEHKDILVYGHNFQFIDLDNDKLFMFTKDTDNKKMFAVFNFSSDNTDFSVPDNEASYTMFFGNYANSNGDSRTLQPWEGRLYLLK

K. lactis [GI: 50312678] = biological target: T2, K. lactis [GI: 50312678] (Kluyveromyces lactis, UniProt Q6CSK8); test: glucose oxidase/peroxidase coupled glucose release; format: biochemical; conditions: Michaelis-Menten or Hill fit
T2 construct: gene KLLA0_B00242g

[1] = substrate: CO[C@H]1O[C@H](CO)[C@@H](O)[C@H](O)[C@H]1O; test: glucose oxidase/peroxidase coupled glucose release; format: biochemical, Saccharomyces cerevisiae; conditions: Michaelis-Menten or Hill fit

T2 sequence (Q6CSK8 entry or part of it): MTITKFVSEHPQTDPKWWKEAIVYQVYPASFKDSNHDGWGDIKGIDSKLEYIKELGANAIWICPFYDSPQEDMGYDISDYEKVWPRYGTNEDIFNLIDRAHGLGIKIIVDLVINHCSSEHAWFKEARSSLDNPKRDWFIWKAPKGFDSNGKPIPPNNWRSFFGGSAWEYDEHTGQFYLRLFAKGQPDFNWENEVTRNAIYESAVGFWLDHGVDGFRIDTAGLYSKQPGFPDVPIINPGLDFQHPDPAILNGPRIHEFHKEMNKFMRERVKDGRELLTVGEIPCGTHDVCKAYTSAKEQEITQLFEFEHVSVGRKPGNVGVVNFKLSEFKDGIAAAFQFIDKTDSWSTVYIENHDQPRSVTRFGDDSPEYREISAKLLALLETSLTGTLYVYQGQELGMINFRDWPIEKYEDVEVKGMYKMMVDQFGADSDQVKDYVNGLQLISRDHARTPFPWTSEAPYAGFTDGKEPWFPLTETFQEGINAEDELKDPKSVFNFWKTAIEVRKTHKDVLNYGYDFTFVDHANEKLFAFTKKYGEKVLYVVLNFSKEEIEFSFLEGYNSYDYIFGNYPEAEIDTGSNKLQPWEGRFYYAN

## OC[C@H]1O[C@H](OC[C@H]2OC(O)[C@H](O)[C@@H](O)[C@@H]2O)[C@H](O)[C@@H](O)[C@@H]1O (stereo partly shown) [isomaltose]
Ima5
  relative activity: relative enzyme activity in crude extracts derived from a yeast strain overexpressing IMA5

## OC[C@H]1O[C@H](O[C@H]2[C@H](O)[C@@H](O)C(O)O[C@@H]2CO)[C@H](O)[C@@H](O)[C@@H]1O (stereo partly shown) [maltose]
K. lactis [GI: 50312678]
  Km: one of the paralogs retains the broad specificity of ancMalS

B1: Ima1 (Saccharomyces cerevisiae S288C) (protein)
chain: TISSAHPETEPKWWKEATFYQIYPASFKDSNDDGWGDMKGIASKLEYIKELGADAIWISPFYDSPQDDMGYDIANYEKVWPTYGTNEDCFALIEKTHKLGMKFITDLVINHCSSEHEWFKESRSSKTNPKRDWFFWRPPKGYDAEGKPIPPNNWKSYFGGSAWTFDEKTQEFYLRLFCSTQPDLNWENEDCRKAIYESAVGYWLDHGVDGFRIDVGSLYSKVVGLPDAPVVDKNSTWQSSDPYTLNGPRIHEFHQEMNQFIRNRVKDGREIMTVGEMQHASDETKRLYTSASRHELSELFNFSHTDVGTSPLFRYNLVPFELKDWKIALAELFRYINGTDCWSTIYLENHDQPRSITRFGDDSPKNRVISGKLLSVLLSALTGTLYVYQGQELGQINFKNWPVEKYEDVEIRNNYNAIKEEHGENSEEMKKFLEAIALISRDHARTPMQWSREEPNAGFSGPSAKPWFYLNDSFREGINVEDEIKDPNSVLNFWKEALKFRKAHKDITVYGYDFEFIDLDNKKLFSFTKKYNNKTLFAALNFSSDATDFKIPNDDSSFKLEFGNYPKKEVDASSRTLKPWEGRIYISE
notes: purified present-day enzyme; expression details in Text S1
[1]
  Km: 16.40 ± 0.73 mM
  kcat: 0.2688 ± 0.00167 s⁻¹

From publication PMC3519909 (PLoS Biology, 2012)
